# US8476449B2, “Radioactive iodine labeled organic compound or salt thereof” (Nihon Medi-Physics Co., Ltd., priority 2010, dated 2013)
# How the values were obtained:
# [1] = tested on: human brain neurofibrillary tangles; assay: Fluorescent staining of Alzheimer's disease patient brain slice (binding to human brain neurofibrillary tangles); settings: 200 μmol/L, 1 hour
# Procedure: A fluorescent staining experiment with compound 3 using an Alzheimer's disease patient brain slice was carried out in order to evaluate binding to human brain neurofibrillary tangles. A postmortem brain slice (paraffin-embedded slice) of an Alzheimer's disease patient purchased from BioChain was washed with xylene (5 minutes×twice), ethanol, ethanol, a 95 vol % ethanol aqueous solution, an 85 volt ethanol aqueous solution, and a 70 vol % ethanol aqueous solution (1 minute×once) to thus carry out deparaffinization. Subsequently, it was treated in sequence with a 0.3 wt % potassium permanganate aqueous solution (20 minutes×once), PBS (phosphoric acid buffer physiological saline) (2 minutes×twice), a 1 wt % potassium metabisulfite aqueous solution/1 wt % oxalic acid aqueous solution (1 minute×once), PBS (2 minutes×twice), a 1 wt % sodium borohydride aqueous solution (5 minutes×once), and PBS (2 minutes×twice) in order to remove self-fluorescence of the slice. Blocking using 3 wt % BSA-containing PBS/0.1 wt % tritonX100-containing PBS was carried out for 3 hours. Then, a test compound (200 μmol/L/50 vol % ethanol aqueous solution) and the slice were incubated for 1 hour. The slice was washed with 50 vol % ethanol, and examined using a fluorescence microscope. Furthermore, the same slice was stained using thioflavin S (0.125 wt %, 50 vol % ethanol aqueous solution) for 10 minutes. […]
# tau protein aggregate [2] = molecular target: T1, tau protein aggregate (Homo sapiens, UniProt P10636); assay: Inhibition constant toward tau protein aggregate (thioflavin S competition); format: binding; set-up: made in house; host or cells: E. coli BL21
# T1 sequence (P10636 1-441 isoform P10636-8): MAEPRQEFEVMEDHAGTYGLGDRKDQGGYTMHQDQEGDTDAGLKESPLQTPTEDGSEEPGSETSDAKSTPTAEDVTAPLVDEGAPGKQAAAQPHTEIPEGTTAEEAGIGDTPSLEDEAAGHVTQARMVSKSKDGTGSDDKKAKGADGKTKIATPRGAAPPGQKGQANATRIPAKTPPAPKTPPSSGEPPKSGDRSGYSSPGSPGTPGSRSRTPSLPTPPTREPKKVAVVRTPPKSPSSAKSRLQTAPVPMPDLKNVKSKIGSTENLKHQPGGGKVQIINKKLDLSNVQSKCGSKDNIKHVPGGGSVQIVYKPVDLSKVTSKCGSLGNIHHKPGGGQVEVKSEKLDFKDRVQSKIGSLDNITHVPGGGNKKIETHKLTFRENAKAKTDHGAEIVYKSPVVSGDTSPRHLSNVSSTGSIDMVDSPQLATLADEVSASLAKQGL
# Procedure: (§1) First, the dissociation constant (Kd) of thioflavin S used as a competitive ligand was first determined by a saturation experiment in order to calculate inhibition constants of compounds 1 to 3. That is, a mixed solution of a 10 vol % ethanol aqueous solution of thioflavin S (0.1-12.8 μmol/L) and the tau protein aggregate (final concentration 0.2 μmol/L, prepared in Example 9) or the Aβ42 aggregate (final concentration 2.2 μmol/L, prepared in Example 11) was incubated for 30 minutes, and the fluorescence intensity was measured using a fluorescence plate reader (FLEX STATION, Molecular Devices). The fluorescence intensity was measured at Ex 440 nm and Em 510 nm for the tau protein aggregate and Ex 440 nm and Em 490 nm for the Aβ42 aggregate. A saturation curve was prepared using GraphPad Prism, and the Kd value for thioflavin S was calculated.
# (§2) Next, a mixed solution of a 10 volt ethanol aqueous solution of thioflavin S (1.5 μmol/L) and a test compound (0.6 nmol/L to 10 μmol/L) together with the tau protein aggregate (final concentration 0.2 μmol/L, prepared in Example 9) or the Aβ42 aggregate (final concentration 10 μg/ml, prepared in Example 11) was incubated for 30 minutes. Then, the fluorescence intensities at Ex 440 nm and Em 510 nm for the tau protein aggregate and Ex 440 nm and Em 490 nm for the Aβ42 aggregate were measured using a fluorescence plate reader (FLEX STATION, Molecular Devices). GraphPad Prism inhibition curves were prepared, and Ki values of compounds 1 to 3 were determined using the above obtained Kd value of thioflavin S.
# Aβ42 aggregate = molecular target: T2, Aβ42 aggregate (Homo sapiens, UniProt P05067); assay: Inhibition constant toward Aβ42 aggregate (thioflavin S competition); format: binding; settings: thioflavin S as ligand, read-out: Ki values (Aβ42 in Table 5)
# T2 construct: Aβ (1-42) peptide; purchased Peptide Institute, Inc
# T2 sequence (P05067 672-713 limits assumed): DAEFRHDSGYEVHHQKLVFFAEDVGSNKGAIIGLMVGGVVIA
# Procedure: as §1, §2
# tau protein aggregate [3] = molecular target: T1, tau protein aggregate; assay: Competitive inhibition experiment using thioflavin S (ThS) as ligand, fluorescence spectra; format: binding; set-up: made in house; host or cells: E. coli BL21; settings: tau protein aggregate 0.2 μmol/L, thioflavin S 1.5 μmol/L, compound 0.1-2.7 μmol/L, excitation 440 nm
# Procedure: Tau-441 expression vector (provided by Graduate School of Medicine, Osaka City University) was transferred to E. coli (BL21), culturing was carried out, and a tau protein was extracted and purified. Heparin (0.1 mg/mL) was added to the purified tau protein (1 mg/mL), and incubation in a 50 mmol/L MES buffer (pH 6.8, 100 mmol/L sodium chloride, 0.5 mmol/L EGTA) at 37° C. was carried out for 3 days, thus preparing an aggregate. Formation of the tau protein aggregate was confirmed by SDS-PAGE and thioflavin S fluorescence assay.
# A mixed solution (550 μL) of the tau protein aggregate (final concentration […]) thus prepared, thioflavin S (Sigma Aldrich, final concentration 1.5 μmol/L), and compound 1, compound 2, or compound 3 solution at various concentrations (each having final concentrations of 0 to 2.7 μmol/L) was incubated for 30 minutes, and fluorescence spectra at an excitation wavelength of 440 nm were measured using a fluorescence spectrometer (RF-5300PC, Shimadzu Corporation).
# In FIGS. 3 to 5, a is a fluorescence spectrum of a sample (sample I) containing only thioflavin S at 1.5 μmol/L, and b is a fluorescence spectrum of a sample (sample II) that is 0.2 μmol/L of the tau protein aggregate in sample I. In FIG. 3, c is a fluorescence spectrum of a sample that is 0.1 μmol/L of compound 1 in sample II, d is a fluorescence spectrum of a sample that is 0.3 μmol/L of compound 1 in sample II, e is a fluorescence spectrum of a sample that is 0.9 μmol/L of compound 1 in sample II, and f is a fluorescence spectrum of a sample that is 2.7 μmol/L of compound 1 in sample II. In FIG. 4, c is a fluorescence spectrum of a sample that is 0.1 μmol/L of compound 2 in sample II, d is a fluorescence spectrum of a sample that is 0.3 μmol/L of compound 2 in sample II, e is a fluorescence spectrum of a sample that is 0.9 μmol/L of compound 2 in sample II, and f is a fluorescence spectrum of a sample that is 2.7 μmol/L of compound 2 in sample II. […]
compound,measurement,setting,value
"O=C1/C(=C/c2ccc(-c3cccc(I)c3)o2)NC(=S)N1CCc1c[nH]cn1 [Compound 3, (Z)-3-(2-(1H-imidazol-4-yl)ethyl)-5-((5-(3-iodophenyl)furan-2-yl)methylene)-2-thioxoimidazolidin-4-one]",Fluorescent staining of brain slice vs AT8 immunostaining,[1],Prominent fluorescence accumulation
same,Ki ratios of Aβ42/Tau,tau protein aggregate [2]; ratio of Ki Aβ42 aggregate to Ki tau protein aggregate,7.33
same,Ki,"tau protein aggregate [2]; thioflavin S as ligand, tau protein aggregate, read-out: Ki values (Tau in Table 5)",0.064 µM
same,Ki,Aβ42 aggregate,0.469 µM
same,Inhibition of binding of tau protein aggregate to thioflavin S (fluorescence spectra),tau protein aggregate [3],inhibition of binding of a tau protein aggregate to thioflavin S
